Experimental data as given in PubChem BioAssay AID1963875 (Molecular Pharmacology Branch, DTP, NCI, 2024).

Tested on: KRAS-mutant PDC complex spheroid viability
Assay: Anticancer human tumor 186277-243-T-J2-PDC patient-derived colon adenocarcinoma cell line growth inhibition [KRAS2]
Details: for viability, T/C: stronger effect = lower value
In short: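 Combination screen of spheroid viability in tumor-cell co-cultures with endothelial (HUVEC) and mesenchymal stem cell stroma. Each agent was tested in half-log dilutions, topping at clinical Cmax or at 10 microM without a known Cmax.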

[1] = curve of first compound, second compound 0.1 µM
[2] = curve of first compound, second compound 0.316 µM
[3] = curve of first compound, second compound 1 µM
[4] = curve of first compound, second compound 3.16 µM
[5] = curve of first compound, second compound 10 µM
[6] = second compound 0.1 µM, first compound 0.0316 µM
[7] = second compound 0.1 µM, first compound 0.1 µM
[8] = second compound 0.1 µM, first compound 0.316 µM
[9] = second compound 0.1 µM, first compound 1 µM
[10] = second compound 0.1 µM, first compound 3.16 µM
[11] = second compound 0.1 µM, first compound 10 µM
[12] = second compound 0.316 µM, first compound 0.0316 µM
[13] = second compound 0.316 µM, first compound 0.1 µM
[14] = second compound 0.316 µM, first compound 0.316 µM
[15] = second compound 0.316 µM, first compound 1 µM
[16] = second compound 0.316 µM, first compound 3.16 µM
[17] = second compound 0.316 µM, first compound 10 µM
[18] = second compound 1 µM, first compound 0.0316 µM
[19] = second compound 1 µM, first compound 0.1 µM
[20] = second compound 1 µM, first compound 0.316 µM
[21] = second compound 1 µM, first compound 1 µM
[22] = second compound 1 µM, first compound 3.16 µM
[23] = second compound 1 µM, first compound 10 µM
[24] = second compound 3.16 µM, first compound 0.0316 µM
[25] = second compound 3.16 µM, first compound 0.1 µM
[26] = second compound 3.16 µM, first compound 0.316 µM
[27] = second compound 3.16 µM, first compound 1 µM
[28] = second compound 3.16 µM, first compound 3.16 µM
[29] = second compound 3.16 µM, first compound 10 µM
[30] = second compound 10 µM, first compound 0.0316 µM
[31] = second compound 10 µM, first compound 0.1 µM
[32] = second compound 10 µM, first compound 0.316 µM
[33] = second compound 10 µM, first compound 1 µM
[34] = second compound 10 µM, first compound 3.16 µM
[35] = second compound 10 µM, first compound 10 µM
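For viability, T/C in this document: viability read after seven days of compound exposure; 100% = DMSO vehicle-treated spheroids so lower means less viable.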

## COc1cc2nccc(Oc3ccc(NC(=O)C4(C(=O)Nc5ccc(F)cc5)CC4)cc3)c2cc1OC + C=CC(=O)N1CCN(c2nc(=O)n(-c3c(C)ccnc3C(C)C)c3nc(-c4c(O)cccc4F)c(F)cc23)C(C)C1
[1]
  IC50: 1880 nM
[2]
  IC50: 1770 nM
[3]
  IC50: 1320 nM
[4]
  IC50: 823 nM
[5]
  IC50: 101 nM
[6]
  viability, T/C: 95.2%
[7]
  viability, T/C: 94.8%
[8]
  viability, T/C: 100%
[9]
  viability, T/C: 93.7%
[10]
  viability, T/C: 13.1%
[11]
  viability, T/C: 15.4%
[12]
  viability, T/C: 93%
[13]
  viability, T/C: 85.5%
[14]
  viability, T/C: 98.2%
[15]
  viability, T/C: 86.1%
[16]
  viability, T/C: 12.3%
[17]
  viability, T/C: 14%
[18]
  viability, T/C: 98%
[19]
  viability, T/C: 92.4%
[20]
  viability, T/C: 101%
[21]
  viability, T/C: 61.8%
[22]
  viability, T/C: 12.4%
[23]
  viability, T/C: 13.7%
[24]
  viability, T/C: 94.5%
[25]
  viability, T/C: 103%
[26]
  viability, T/C: 91.2%
[27]
  viability, T/C: 41.8%
[28]
  viability, T/C: 9.95%
[29]
  viability, T/C: 11.2%
[30]
  viability, T/C: 49.9%
[31]
  viability, T/C: 52.7%
[32]
  viability, T/C: 32.3%
[33]
  viability, T/C: 9.14%
[34]
  viability, T/C: 2.99%
[35]
  viability, T/C: 3.53%

## CC(C)n1nc(-c2ccc3oc(N)nc3c2)c2c(N)ncnc21 + COc1cc2nc(C)nc(NC(C)c3cc(N)cc(C(F)(F)F)c3)c2cc1OC1CCOC1
[1]
  IC50: 7.67 nM
[2]
  IC50: 6.38 nM
[3]
  IC50: 15.4 nM
[4]
  IC50: 17.3 nM
[5]
  IC50: 5.8 nM
Second compound 0.1 µM, first compound 0.000316 µM
  viability, T/C: 98.3%
Second compound 0.1 µM, first compound 0.001 µM
  viability, T/C: 96.3%
Second compound 0.1 µM, first compound 0.00316 µM
  viability, T/C: 64.8%
Second compound 0.1 µM, first compound 0.01 µM
  viability, T/C: 47%
[6]
  viability, T/C: 25.3%
[7]
  viability, T/C: 17.3%
Second compound 0.316 µM, first compound 0.000316 µM
  viability, T/C: 111%
Second compound 0.316 µM, first compound 0.001 µM
  viability, T/C: 93.6%
Second compound 0.316 µM, first compound 0.00316 µM
  viability, T/C: 74.1%
Second compound 0.316 µM, first compound 0.01 µM
  viability, T/C: 34.8%
[12]
  viability, T/C: 19.8%
[13]
  viability, T/C: 17.2%
Second compound 1 µM, first compound 0.000316 µM
  viability, T/C: 108%
Second compound 1 µM, first compound 0.001 µM
  viability, T/C: 103%
Second compound 1 µM, first compound 0.00316 µM
  viability, T/C: 91.8%
Second compound 1 µM, first compound 0.01 µM
  viability, T/C: 62.9%
[18]
  viability, T/C: 28.5%
[19]
  viability, T/C: 13.7%
Second compound 3.16 µM, first compound 0.000316 µM
  viability, T/C: 109%
Second compound 3.16 µM, first compound 0.001 µM
  viability, T/C: 103%
Second compound 3.16 µM, first compound 0.00316 µM
  viability, T/C: 99.8%
Second compound 3.16 µM, first compound 0.01 µM
  viability, T/C: 69%
[24]
  viability, T/C: 29%
[25]
  viability, T/C: 16%
Second compound 10 µM, first compound 0.000316 µM
  viability, T/C: 64.5%
Second compound 10 µM, first compound 0.001 µM
  viability, T/C: 64.3%
Second compound 10 µM, first compound 0.00316 µM
  viability, T/C: 58.8%
Second compound 10 µM, first compound 0.01 µM
  viability, T/C: 41.9%
[30]
  viability, T/C: 21.1%
[31]
  viability, T/C: 8.37%

## COC(=O)c1ccc2c(C(=Nc3ccc(N(C)C(=O)CN4CCN(C)CC4)cc3)c3ccccc3)c(O)[nH]c2c1 + CNCc1ccccc1-c1csc(C(C)Nc2nc(C)nc3cc(OC)c(OC)cc23)c1
[1]
  IC50: 1840 nM
[2]
  IC50: 1140 nM
[3]
  IC50: 727 nM
[4]
  IC50: < 31.6 nM
[5]
  IC50: < 31.6 nM
[6]
  viability, T/C: 97.4%
[7]
  viability, T/C: 94.1%
[8]
  viability, T/C: 120%
[9]
  viability, T/C: 92.6%
[10]
  viability, T/C: 12.3%
[11]
  viability, T/C: 6.55%
[12]
  viability, T/C: 101%
[13]
  viability, T/C: 102%
[14]
  viability, T/C: 105%
[15]
  viability, T/C: 56.5%
[16]
  viability, T/C: 0.86%
[17]
  viability, T/C: 1.8%
[18]
  viability, T/C: 104%
[19]
  viability, T/C: 109%
[20]
  viability, T/C: 101%
[21]
  viability, T/C: 30.5%
[22]
  viability, T/C: 0.19%
[23]
  viability, T/C: 0.16%
[24]
  viability, T/C: 25.5%
[25]
  viability, T/C: 20.5%
[26]
  viability, T/C: 0.12%
[27]
  viability, T/C: 0.06%
[28]
  viability, T/C: 0.03%
[29]
  viability, T/C: 0.1%
[30]
  viability, T/C: 0.13%
[31]
  viability, T/C: 0.12%
[32]
  viability, T/C: 0.1%
[33]
  viability, T/C: 0.08%
[34]
  viability, T/C: 0.09%
[35]
  viability, T/C: 0.14%

## CC1(C)CCC(CN2CCN(c3ccc(C(=O)NS(=O)(=O)c4ccc(NCC5CCOCC5)c([N+](=O)[O-])c4)c(Oc4cnc5[nH]ccc5c4)c3)CC2)=C(c2ccc(Cl)cc2)C1
Compound 0.0316 µM
  viability, T/C: 97.6% [middle of 5 runs]
Compound 0.1 µM
  viability, T/C: 93.7% [middle of 5 runs]
Compound 0.316 µM
  viability, T/C: 104% [middle of 5 runs]
Compound 1 µM
  viability, T/C: 98.1% [middle of 5 runs]
Compound 3.16 µM
  viability, T/C: 22.7% [middle of 5 runs]
Compound 10 µM
  viability, T/C: 4.85% [middle of 5 runs]
Curve of compound
  IC50: 2.07 µM [middle of 5 runs]
